Experimental data from publication PMC5829257, “Structure, computational and biochemical analysis of PcCel45A endoglucanase from Phanerochaete chrysosporium and catalytic mechanisms of GH45 subfamily C members” (Scientific Reports, 2018).

Biological target: T1, PcCel45A (Phanerodontia chrysosporium, UniProt B3Y002)
T1 construct: gene egv; mature single catalytic domain; pEXPYR+ vector, secreted from Aspergillus nidulans A773 (Results text says A. niger)
Experiment: X-ray crystallography of the complex
Format: binding
Conditions: bound at +1 and +2 subsites of the active-site groove; crystals in ammonium sulfate, Hepes pH 7.5, MPD

T1 sequence (B3Y002 entry or part of it): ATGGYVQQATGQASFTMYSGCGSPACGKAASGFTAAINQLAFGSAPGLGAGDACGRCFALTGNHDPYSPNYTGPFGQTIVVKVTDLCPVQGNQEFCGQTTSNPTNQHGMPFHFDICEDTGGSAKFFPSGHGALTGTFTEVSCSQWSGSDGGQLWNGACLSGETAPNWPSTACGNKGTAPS

OC[C@H]1O[C@@H](O[C@H]2[C@H](O)[C@@H](O)C(O)O[C@@H]2CO)[C@H](O)[C@@H](O)[C@@H]1O (stereo partly shown) [cellobiose]
X-ray crystallography of the complex: The structure of the PcCel45A-cellobiose complex revealed a single cellobiose molecule within the active-site groove
